Experimental data: patent US11951204B2, “Cell-penetrating peptides and composition including the same” (S-SKIN. CO., LTD., priority 2022, dated 2024)
Ends that are not written are not given here. * marks the point of attachment. FITC = O=C1OC2(c3ccc(O)cc3Oc3cc(O)ccc32)c2ccc(NC(=S)*)cc21; Ahx = NCCCCCC(=O)O

Experiments:
Assay type in all cases: cell-based, human
[1] = test system: HaCaT cells; experiment: Dependence of cell penetration on ATP (flow cytometry); conditions: pre-treated with 2-DG and NaN3
Procedure: (§1) HaCaT cells were inoculated at a concentration of 3×10^5 cells/well into a 6-well plate and incubated for 24 hours. Then, the cell culture medium was removed, followed by washing twice with HBSS, and replaced with an Opti-MEM medium. The cells were treated with 10 μM FITC-TAT, FITC-Spep001, FITC-Spep002 or FITC-Spep003 and incubated at 37° C. with 5% CO2 for 1 hour. […] Finally, the cells were treated with 1 mg/mL trypsin and thus separated into single cells, followed by centrifugation at 1,000 rpm for 5 minutes. The FITC fluorescence intensities of cell-penetrating peptides per living 10,000 cells were measured by performing flow cytometry (Navios Flow Cytometer by Beckman Coulter Life Sciences), and the result thereof is shown in FIG. 5A(i) to FIG. 5A(v) and FIG. 5B.
A test was conducted in the same conditions as those in Example 7 except that the cells were pre-treated with 2-DG (2-deoxyglucose, D6134, sigma) and NaN3 (sodium azide, 71289, sigma) one hour before treatment with FITC-TAT, FITC-Spep001, FITC-Spep002 or FITC-Spep003 to check the dependence of endocytosis on ATP. Then, the FITC fluorescence intensities of peptides penetrating into living cells were measured by flow cytometry as in Example 5, and the result thereof is shown in FIG. 7.

[2] = test system: HaCaT cells; experiment: Cell penetration by confocal laser microscope; conditions: 10 μM, 24 hours, compared to positive control FITC-TAT
Procedure: HaCaT cells were inoculated at a concentration of 1.5×10^4 cells/well into an optical 96-well plate (M0562, Greiner) and incubated for 24 hours. Then, the medium was removed, followed by washing once with HBSS, and replaced with a serum-free medium. The cells were treated with 10 μM FITC-Spep001, FITC-Spep002 or FITC-Spep003 and then further incubated for 24 hours. Thereafter, the cells were washed four times with HBSS and treated with 10 μg/mL H33342 (bisBenzimide H33342 trihydrochloride (B2261, Sigma)) and then further incubated at room temperature for 5 minutes. Finally, the cells were washed three times with HBSS. The cell penetration rate was checked using a super resolution confocal laser microscope (LSM800), and the result thereof is shown in FIG. 4A(i) to FIG. 4F(iv). Herein, the cells were treated only FITC (F1906, Invitrogen™) as a negative control, and FITC-TAT was used as a positive control.

[3] = test system: HaCaT cells; experiment: Cell penetration rate by flow cytometry; conditions: 10 μM, 37° C., 1 hour
Procedure: as §1

Substance: FITC-Ahx-RLRLRQRRRR ({FITC-Ahx}-RLRLRQRRRR) [FITC-Spep001, Spep001 labelled with FITC at the N-terminal amine group]
- FITC fluorescence intensity under ATP deficiency [1]: decreased
- amount penetrating into cells (fluorescent microscopic image) [2]: penetrates into cells in a greater amount than the positive control FITC-TAT
- cell penetration rate (FITC-positive cell count) [3]: 36.3%
- cell penetration rate based on TAT-FITC with a cell penetration rate of 100% [3]: 133.95%
